How the values were obtained:
[1] = Metal chelating activity assessed as Fe3+ complex formation by measuring stability constant for FeI in using pre Fe+3 complexed compound (FeCl3) in 0.1 M KCl :DMSO solution UV-pH titration based spectrophotometric analysis
[2] = Dissociation constant, pKa2 of compound for dissociation of the 3-hydroxyl group in 0.1 M KCl incubated for 1 min by UV-pH titration based spectrophotometric analysis; assay type: physicochemical
[3] = Metal chelating activity assessed as iron chelation
[4] = target: T1, Amine oxidase [flavin-containing] B (Homo sapiens, UniProt P27338); assay: Inhibition of human recombinant MAO-B expressed in baculovirus infected BTI insect cells using kynuramine as substrate incubated for 10 mins followed by substrate addition by fluorimetric analysis
T1 sequence (P27338 whole entry): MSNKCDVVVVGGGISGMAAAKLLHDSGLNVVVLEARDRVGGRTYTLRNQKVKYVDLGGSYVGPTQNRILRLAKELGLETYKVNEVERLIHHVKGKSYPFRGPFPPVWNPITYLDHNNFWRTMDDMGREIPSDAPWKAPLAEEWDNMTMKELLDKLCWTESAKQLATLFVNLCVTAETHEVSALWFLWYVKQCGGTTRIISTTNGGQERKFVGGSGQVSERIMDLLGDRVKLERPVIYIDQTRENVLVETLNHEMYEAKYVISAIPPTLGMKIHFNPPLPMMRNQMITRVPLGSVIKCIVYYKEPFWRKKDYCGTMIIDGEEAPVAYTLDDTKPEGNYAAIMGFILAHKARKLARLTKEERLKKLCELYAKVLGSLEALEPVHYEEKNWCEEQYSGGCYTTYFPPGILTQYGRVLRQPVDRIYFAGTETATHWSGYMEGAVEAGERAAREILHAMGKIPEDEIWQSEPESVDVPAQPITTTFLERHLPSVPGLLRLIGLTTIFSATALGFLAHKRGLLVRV

[5] = Metal chelating activity assessed as Fe3+ complex formation by measuring stability constant for Fe(I)3 in using pre Fe+3 complexed compound (FeCl3) in 0.1 M KCl :DMSO solution UV-pH titration based spectrophotometric analysis
[6] = Dissociation constant, pKa1 of compound for protonation of the 4-oxo group in 0.1 M KCl incubated for 1 min by UV-pH titration based spectrophotometric analysis; assay type: physicochemical
[7] = Metal chelating activity assessed as Fe3+ complex formation by measuring stability constant for Fe(I)2 in using pre Fe+3 complexed compound (FeCl3) in 0.1 M KCl :DMSO solution UV-pH titration based spectrophotometric analysis
[8] = target: T1, Amine oxidase [flavin-containing] B; assay: Inhibition of human recombinant MAO-B expressed in baculovirus infected BTI insect cells using kynuramine as substrate at 100 nM incubated for 10 mins followed by substrate addition by fluorimetric analysis relative to control

Row | log(activity) [1] | pKa at 1 min [2] | pFe3+ [3] | IC50 [4] | log(activity) [5] | pKa at 1 min [6] | log(activity) [7] | inhibition at 0.1 µM [8] | SMILES
1 | 14.2 | 9.76 | 17 | 128 nM | 33.5 | 3.27 | 25.1 | 48.1% | Cc1c(O)c(=O)ccn1CCNC(=O)c1cc2ccc(OCc3ccc(F)cc3)cc2oc1=O
2 | 13.8 | 9.48 | 17.6 | 160 nM | 33.3 | 3.29 | 24.8 | 43.5% | Cc1c(O)c(=O)ccn1CCC(=O)Nc1cc2ccccc2oc1=O
3 | 14.4 | 9.75 | 18.7 | 156 nM | 35.2 | 3.3 | 25.8 | 44% | Cc1cccc2cc(C(=O)NCCn3ccc(=O)c(O)c3C)c(=O)oc12
4 | 14.1 | 9.7 | 16.9 | – | 33.2 | 3.25 | 24.9 | 30.1% | Cc1c(O)c(=O)ccn1CCNC(=O)c1cc2ccc(OCc3ccccc3)cc2oc1=O
5 | 14.1 | 9.77 | 17 | 143 nM | 33.3 | 3.24 | 24.8 | 47.6% | COc1ccc(COc2ccc3cc(C(=O)NCCn4ccc(=O)c(O)c4C)c(=O)oc3c2)cc1
6 | 14.2 | 9.55 | 18.2 | 111 nM | 34.1 | 3.22 | 25.4 | 46% | COc1cccc2cc(C(=O)NCCn3ccc(=O)c(O)c3C)c(=O)oc12
7 | 14.1 | 9.67 | 17.9 | – | 34.1 | 3.33 | 25.4 | 34.8% | Cc1ccc2oc(=O)c(C(=O)NCCn3ccc(=O)c(O)c3C)cc2c1
8 | 13.7 | 9.32 | 16.9 | 100 nM | 32 | 3.25 | 24.3 | 47.7% | Cc1c(O)c(=O)ccn1CCNC(=O)c1cc2cc(OCc3ccccc3)ccc2oc1=O
9 | 13.8 | 9.92 | 17.2 | – | 34.2 | 2.75 | 25.2 | 29.5% | Cc1c(O)c(=O)ccn1CCNC(=O)c1cc2ccc(O)cc2oc1=O
10 | 14.4 | 9.98 | 17.6 | 158 nM | 34.8 | 3.35 | 26 | 46.2% | Cc1c(O)c(=O)ccn1CCNC(=O)c1cc2cccc(O)c2oc1=O
11 | 14.1 | 9.65 | 17.1 | 108 nM | 33.3 | 3.32 | 24.7 | 49.1% | Cc1c(O)c(=O)ccn1CCNC(=O)c1cc2ccc(OCc3cccc(F)c3)cc2oc1=O
12 | 14 | 9.59 | 17.9 | 173 nM | 33.9 | 3.22 | 25 | 46.9% | Cc1c(O)c(=O)ccn1CCNC(=O)c1cc2ccccc2oc1=O
13 | 12.9 | 9.05 | 17.3 | 129 nM | 31.8 | 3.3 | 23.3 | 44.8% | Cc1cc(=O)c(O)cn1CCNC(=O)c1cc2ccccc2oc1=O
14 | 14 | 9.58 | 17.2 | 131 nM | 32.9 | 3.28 | 25.4 | 46.5% | Cc1c(O)c(=O)ccn1CCNC(=O)c1cc2cccc(OCc3ccccc3)c2oc1=O
